What was measured:
Acetylcholinesterase = Acetylcholinesterase (Homo sapiens, UniProt P22303); assay type: functional
Adenosine receptor A3 = target: T1, Adenosine receptor A3 (Homo sapiens, UniProt P0DMS8)
T1 sequence (P0DMS8 whole entry): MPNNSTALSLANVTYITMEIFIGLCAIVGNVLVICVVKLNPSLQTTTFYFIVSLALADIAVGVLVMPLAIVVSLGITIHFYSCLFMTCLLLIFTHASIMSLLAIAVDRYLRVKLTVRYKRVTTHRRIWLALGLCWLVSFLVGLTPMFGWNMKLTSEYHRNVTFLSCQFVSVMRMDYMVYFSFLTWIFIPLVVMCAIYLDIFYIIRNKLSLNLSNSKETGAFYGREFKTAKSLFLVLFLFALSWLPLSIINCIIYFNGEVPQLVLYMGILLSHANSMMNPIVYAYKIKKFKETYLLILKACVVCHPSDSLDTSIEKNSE

[1] = target: T2, Alpha-1A adrenergic receptor (Homo sapiens, UniProt P35348); assay type: functional, cell-based
T2 sequence (P35348 whole entry): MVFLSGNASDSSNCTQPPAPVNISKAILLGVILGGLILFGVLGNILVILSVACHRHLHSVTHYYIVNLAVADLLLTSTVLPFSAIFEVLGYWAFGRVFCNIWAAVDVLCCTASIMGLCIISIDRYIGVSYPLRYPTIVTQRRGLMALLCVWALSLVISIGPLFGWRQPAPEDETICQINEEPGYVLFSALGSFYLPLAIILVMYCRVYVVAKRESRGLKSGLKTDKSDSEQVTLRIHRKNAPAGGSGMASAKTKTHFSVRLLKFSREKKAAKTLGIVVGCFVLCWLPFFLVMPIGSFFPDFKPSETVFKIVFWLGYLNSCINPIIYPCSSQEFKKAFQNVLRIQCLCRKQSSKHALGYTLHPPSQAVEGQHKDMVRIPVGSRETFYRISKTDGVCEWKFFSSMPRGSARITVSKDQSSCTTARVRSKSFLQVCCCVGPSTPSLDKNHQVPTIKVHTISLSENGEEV

[2] = target: T2, Alpha-1A adrenergic receptor; assay type: functional, cell-based; remark: listed apart in the source
Histamine H3 receptor = Histamine H3 receptor (Homo sapiens, UniProt Q9Y5N1)
Histamine H3 receptor, sequence (Q9Y5N1 whole entry): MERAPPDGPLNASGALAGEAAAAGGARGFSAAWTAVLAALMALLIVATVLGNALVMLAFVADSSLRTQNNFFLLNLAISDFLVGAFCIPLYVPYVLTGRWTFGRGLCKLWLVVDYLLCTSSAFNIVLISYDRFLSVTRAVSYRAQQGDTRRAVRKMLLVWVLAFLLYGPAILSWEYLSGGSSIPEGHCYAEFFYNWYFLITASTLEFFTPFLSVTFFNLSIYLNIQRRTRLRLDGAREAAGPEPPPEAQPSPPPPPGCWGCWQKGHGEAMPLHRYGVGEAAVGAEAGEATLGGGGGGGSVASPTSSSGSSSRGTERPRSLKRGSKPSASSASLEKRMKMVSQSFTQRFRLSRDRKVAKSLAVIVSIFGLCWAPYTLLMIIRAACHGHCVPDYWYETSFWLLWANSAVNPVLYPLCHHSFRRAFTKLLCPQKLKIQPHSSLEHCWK

[3] = target: Voltage-gated inwardly rectifying potassium channel KCNH2 (Homo sapiens, UniProt Q12809); assay type: functional; conditions: read-out: AC50
Voltage-gated inwardly rectifying potassium channel KCNH2, sequence (Q12809 whole entry): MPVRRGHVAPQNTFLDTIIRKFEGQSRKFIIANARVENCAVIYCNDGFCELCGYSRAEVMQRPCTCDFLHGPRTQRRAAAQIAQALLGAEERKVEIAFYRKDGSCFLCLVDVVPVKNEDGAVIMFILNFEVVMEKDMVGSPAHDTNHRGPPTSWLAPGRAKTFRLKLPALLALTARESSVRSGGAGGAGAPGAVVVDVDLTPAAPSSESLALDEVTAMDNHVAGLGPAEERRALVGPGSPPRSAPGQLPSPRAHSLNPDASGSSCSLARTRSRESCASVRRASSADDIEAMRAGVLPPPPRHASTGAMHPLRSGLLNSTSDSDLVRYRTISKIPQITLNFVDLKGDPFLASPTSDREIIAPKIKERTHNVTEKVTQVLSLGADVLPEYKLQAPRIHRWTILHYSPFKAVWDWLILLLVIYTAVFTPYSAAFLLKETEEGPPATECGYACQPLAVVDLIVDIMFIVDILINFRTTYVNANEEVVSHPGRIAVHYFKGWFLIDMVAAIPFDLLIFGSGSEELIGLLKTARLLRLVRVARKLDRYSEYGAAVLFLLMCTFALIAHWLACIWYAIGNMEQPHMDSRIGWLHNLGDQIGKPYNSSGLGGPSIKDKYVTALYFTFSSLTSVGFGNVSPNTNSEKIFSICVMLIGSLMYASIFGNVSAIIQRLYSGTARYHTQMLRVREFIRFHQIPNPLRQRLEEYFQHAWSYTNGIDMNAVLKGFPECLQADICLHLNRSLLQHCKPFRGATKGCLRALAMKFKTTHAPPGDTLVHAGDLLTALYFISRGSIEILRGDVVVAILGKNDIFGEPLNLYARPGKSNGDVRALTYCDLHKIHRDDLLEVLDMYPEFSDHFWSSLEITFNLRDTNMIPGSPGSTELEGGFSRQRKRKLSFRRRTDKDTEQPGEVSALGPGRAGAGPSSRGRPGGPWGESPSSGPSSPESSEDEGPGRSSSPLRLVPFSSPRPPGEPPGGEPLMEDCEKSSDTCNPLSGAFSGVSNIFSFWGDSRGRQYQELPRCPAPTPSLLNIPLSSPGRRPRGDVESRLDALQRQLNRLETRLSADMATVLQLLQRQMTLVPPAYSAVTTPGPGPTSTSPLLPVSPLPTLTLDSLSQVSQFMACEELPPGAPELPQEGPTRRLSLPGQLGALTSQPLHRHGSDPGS

[4] = target: T3, Amine oxidase [flavin-containing] A (Homo sapiens, UniProt P21397); assay type: functional
T3 sequence (P21397 whole entry): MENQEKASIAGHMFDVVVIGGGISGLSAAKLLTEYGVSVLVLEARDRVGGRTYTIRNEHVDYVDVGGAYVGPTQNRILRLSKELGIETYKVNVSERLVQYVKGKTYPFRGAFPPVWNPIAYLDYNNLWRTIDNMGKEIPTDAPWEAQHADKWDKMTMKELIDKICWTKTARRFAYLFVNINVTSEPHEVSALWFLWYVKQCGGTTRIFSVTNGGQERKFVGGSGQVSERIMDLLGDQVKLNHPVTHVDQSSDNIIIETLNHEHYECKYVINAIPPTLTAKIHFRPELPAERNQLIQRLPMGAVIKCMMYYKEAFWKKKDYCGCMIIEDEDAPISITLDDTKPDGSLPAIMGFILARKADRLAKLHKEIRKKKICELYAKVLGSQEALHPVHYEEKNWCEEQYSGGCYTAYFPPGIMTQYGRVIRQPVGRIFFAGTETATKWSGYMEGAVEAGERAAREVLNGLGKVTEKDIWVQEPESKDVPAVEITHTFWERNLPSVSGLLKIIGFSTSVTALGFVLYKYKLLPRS

Mu-type opioid receptor = Mu-type opioid receptor (Homo sapiens, UniProt P35372)
Mu-type opioid receptor, sequence (P35372 whole entry): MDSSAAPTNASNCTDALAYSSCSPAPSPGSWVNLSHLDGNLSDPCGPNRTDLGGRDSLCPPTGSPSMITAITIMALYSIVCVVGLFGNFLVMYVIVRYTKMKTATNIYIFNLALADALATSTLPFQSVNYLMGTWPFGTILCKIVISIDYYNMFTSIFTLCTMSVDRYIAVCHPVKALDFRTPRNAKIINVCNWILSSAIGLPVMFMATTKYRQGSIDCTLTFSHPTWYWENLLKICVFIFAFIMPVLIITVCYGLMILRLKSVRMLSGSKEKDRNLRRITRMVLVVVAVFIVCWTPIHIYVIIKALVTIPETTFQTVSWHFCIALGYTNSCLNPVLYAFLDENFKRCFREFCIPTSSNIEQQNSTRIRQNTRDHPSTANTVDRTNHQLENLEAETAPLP

[5] = target: cGMP-inhibited 3',5'-cyclic phosphodiesterase 3A (Homo sapiens, UniProt Q14432); assay type: functional
cGMP-inhibited 3',5'-cyclic phosphodiesterase 3A, sequence (Q14432 whole entry): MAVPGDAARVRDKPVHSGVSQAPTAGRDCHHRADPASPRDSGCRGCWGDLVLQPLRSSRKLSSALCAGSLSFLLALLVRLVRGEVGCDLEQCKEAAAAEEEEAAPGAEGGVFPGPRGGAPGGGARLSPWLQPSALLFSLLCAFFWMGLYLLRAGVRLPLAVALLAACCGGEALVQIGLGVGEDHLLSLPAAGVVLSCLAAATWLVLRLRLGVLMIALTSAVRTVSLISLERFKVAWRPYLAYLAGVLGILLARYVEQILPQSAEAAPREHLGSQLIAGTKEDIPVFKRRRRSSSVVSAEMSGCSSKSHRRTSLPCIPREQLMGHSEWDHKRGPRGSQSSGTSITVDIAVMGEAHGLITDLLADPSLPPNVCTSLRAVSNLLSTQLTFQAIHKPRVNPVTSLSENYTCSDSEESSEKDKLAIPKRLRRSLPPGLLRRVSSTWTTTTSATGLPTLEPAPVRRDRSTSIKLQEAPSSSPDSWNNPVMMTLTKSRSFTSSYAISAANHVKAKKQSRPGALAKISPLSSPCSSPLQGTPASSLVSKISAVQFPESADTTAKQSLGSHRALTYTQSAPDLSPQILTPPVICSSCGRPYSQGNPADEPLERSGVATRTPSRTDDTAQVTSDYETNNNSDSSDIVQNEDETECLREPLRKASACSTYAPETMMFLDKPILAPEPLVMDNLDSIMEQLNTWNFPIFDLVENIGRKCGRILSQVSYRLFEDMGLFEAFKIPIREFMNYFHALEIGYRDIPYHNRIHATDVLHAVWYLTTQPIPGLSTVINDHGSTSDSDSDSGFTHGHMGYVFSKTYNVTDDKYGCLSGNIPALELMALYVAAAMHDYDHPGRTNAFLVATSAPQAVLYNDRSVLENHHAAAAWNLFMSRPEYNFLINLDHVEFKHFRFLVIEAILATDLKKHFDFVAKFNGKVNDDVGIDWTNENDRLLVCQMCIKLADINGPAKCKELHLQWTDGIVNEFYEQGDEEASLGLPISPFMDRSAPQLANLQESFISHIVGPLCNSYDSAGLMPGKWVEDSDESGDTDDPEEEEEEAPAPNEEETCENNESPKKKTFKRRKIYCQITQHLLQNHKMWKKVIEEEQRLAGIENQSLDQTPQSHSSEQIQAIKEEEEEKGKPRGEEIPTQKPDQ

[6] = target: 3',5'-cyclic-AMP phosphodiesterase 4A (Homo sapiens, UniProt P27815); assay type: functional
3',5'-cyclic-AMP phosphodiesterase 4A, sequence (P27815 whole entry): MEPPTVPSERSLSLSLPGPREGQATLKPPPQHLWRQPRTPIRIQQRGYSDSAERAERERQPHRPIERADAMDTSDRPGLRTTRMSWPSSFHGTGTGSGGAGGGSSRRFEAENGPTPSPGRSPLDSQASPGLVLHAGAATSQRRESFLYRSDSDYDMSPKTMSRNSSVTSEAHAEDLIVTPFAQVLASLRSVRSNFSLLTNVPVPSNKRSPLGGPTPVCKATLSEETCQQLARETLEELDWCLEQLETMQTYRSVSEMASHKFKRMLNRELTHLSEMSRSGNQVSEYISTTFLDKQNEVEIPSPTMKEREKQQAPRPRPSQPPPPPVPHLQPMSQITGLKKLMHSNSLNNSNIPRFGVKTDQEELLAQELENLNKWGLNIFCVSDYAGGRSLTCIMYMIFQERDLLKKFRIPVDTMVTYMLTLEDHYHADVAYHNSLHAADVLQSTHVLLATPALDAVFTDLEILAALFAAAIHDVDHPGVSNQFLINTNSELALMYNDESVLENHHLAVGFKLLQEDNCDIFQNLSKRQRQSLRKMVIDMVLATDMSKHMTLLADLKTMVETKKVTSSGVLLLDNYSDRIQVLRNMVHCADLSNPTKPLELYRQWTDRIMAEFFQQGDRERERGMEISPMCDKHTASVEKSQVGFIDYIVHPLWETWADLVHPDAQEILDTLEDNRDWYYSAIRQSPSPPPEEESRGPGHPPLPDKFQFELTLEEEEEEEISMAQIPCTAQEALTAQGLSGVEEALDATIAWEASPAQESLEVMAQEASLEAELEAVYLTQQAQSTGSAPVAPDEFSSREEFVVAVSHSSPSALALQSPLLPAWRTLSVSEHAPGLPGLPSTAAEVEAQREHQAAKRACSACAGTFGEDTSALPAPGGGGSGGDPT

Thromboxane A2 receptor = target: T4, Thromboxane A2 receptor (Homo sapiens, UniProt P21731); assay type: functional, cell-based
T4 sequence (P21731 whole entry): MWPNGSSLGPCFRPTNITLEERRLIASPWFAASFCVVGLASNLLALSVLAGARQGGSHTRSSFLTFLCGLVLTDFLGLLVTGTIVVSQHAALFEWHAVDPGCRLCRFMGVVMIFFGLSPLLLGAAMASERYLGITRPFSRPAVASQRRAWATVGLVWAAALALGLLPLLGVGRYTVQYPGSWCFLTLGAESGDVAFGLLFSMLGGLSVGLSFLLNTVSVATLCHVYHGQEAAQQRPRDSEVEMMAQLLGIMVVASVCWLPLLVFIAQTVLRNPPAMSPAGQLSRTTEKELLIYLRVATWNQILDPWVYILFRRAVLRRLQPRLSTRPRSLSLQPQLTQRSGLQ
Also: assay procedure not described here.

Acetylcholinesterase, sequence (P22303 whole entry): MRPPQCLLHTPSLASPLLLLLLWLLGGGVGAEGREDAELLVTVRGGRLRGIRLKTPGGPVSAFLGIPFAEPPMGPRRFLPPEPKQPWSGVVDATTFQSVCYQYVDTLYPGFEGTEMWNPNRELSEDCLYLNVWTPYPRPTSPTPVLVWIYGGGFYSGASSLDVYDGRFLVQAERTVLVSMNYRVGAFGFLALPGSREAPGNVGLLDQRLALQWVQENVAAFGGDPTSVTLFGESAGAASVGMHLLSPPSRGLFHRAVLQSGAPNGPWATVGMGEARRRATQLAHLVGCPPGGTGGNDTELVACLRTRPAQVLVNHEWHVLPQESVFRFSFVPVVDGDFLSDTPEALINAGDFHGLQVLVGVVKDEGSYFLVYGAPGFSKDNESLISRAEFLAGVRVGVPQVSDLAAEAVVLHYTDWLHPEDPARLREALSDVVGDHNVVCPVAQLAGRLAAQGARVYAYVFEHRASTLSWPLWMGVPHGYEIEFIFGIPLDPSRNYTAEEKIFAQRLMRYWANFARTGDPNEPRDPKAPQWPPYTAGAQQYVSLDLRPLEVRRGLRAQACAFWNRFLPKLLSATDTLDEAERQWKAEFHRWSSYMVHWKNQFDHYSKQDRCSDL

Molecule `COC(=O)Nc1nc2cc(C(=O)c3ccc(F)cc3)ccc2[nH]1` [FLUBENDAZOLE] has an AC50 (Acetylcholinesterase) of over 30 µM, an AC50 (Adenosine receptor A3) of 8.69 µM and an AC50 [1] of over 30 µM. The AC50 [2] was over 30 µM, the AC50 (Histamine H3 receptor) was over 30 µM and the AC50 [3] was over 30 µM. The AC50 [4] was over 30 µM, the AC50 (Mu-type opioid receptor) was over 30 µM and the AC50 [5] was over 30 µM. The AC50 [6] was over 30 µM and the AC50 (Thromboxane A2 receptor) was over 30 µM.

Work on `[H]/N=C(/N)NS(=O)(=O)c1ccc(N)cc1` [SULFAGUANIDINE] yielded an AC50 (Acetylcholinesterase) of over 30 µM, an AC50 (Adenosine receptor A3) of over 30 µM and an AC50 [1] of over 30 µM. For the same molecule, the AC50 [2] was over 30 µM, the AC50 (Histamine H3 receptor) was over 30 µM and the AC50 [3] was over 30 µM. For the same molecule, the AC50 [4] was over 30 µM, the AC50 (Mu-type opioid receptor) was over 30 µM and the AC50 [5] was over 30 µM. It also gave an AC50 [6] of over 30 µM and an AC50 (Thromboxane A2 receptor) of over 30 µM.

With `Cc1cn(-c2cc(NC(=O)c3ccc(C)c(Nc4nccc(-c5cnccn5)n4)c3)cc(C(F)(F)F)c2)cn1` [RADOTINIB] the AC50 (Acetylcholinesterase) was over 10 µM, the AC50 (Adenosine receptor A3) was 0.298 µM and the AC50 [1] was over 30 µM. The AC50 [2] was over 30 µM, the AC50 (Histamine H3 receptor) was over 30 µM and the AC50 [3] was over 30 µM. For the same molecule, the AC50 [4] was over 30 µM, the AC50 (Mu-type opioid receptor) was over 3 µM and the AC50 [5] was over 3 µM. It also gave an AC50 [6] of over 30 µM and an AC50 (Thromboxane A2 receptor) of over 30 µM.

Work on `CC(C)N1CCOC(c2cccc(C(F)(F)F)c2)C1` (stereo not drawn) [OXAFLOZANE] yielded an AC50 (Acetylcholinesterase) of over 30 µM, an AC50 (Adenosine receptor A3) of over 30 µM and an AC50 [1] of over 30 µM. For the same molecule, the AC50 [2] was over 30 µM, the AC50 (Histamine H3 receptor) was over 30 µM and the AC50 [3] was over 30 µM. The AC50 [4] was over 30 µM, the AC50 (Mu-type opioid receptor) was over 30 µM and the AC50 [5] was over 30 µM. For the same molecule, the AC50 [6] was over 30 µM and the AC50 (Thromboxane A2 receptor) was over 30 µM.

Work on `Cc1cccc(C)c1NC(=O)CN(CC(=O)O)CC(=O)O` [LIDOFENIN] yielded an AC50 (Acetylcholinesterase) of over 30 µM, an AC50 (Adenosine receptor A3) of over 30 µM and an AC50 [1] of over 30 µM. For the same molecule, the AC50 [2] was over 30 µM, the AC50 (Histamine H3 receptor) was over 30 µM and the AC50 [3] was over 30 µM. The AC50 [4] was over 30 µM, the AC50 (Mu-type opioid receptor) was over 30 µM and the AC50 [5] was over 30 µM. It also gave an AC50 [6] of over 30 µM and an AC50 (Thromboxane A2 receptor) of over 30 µM.

`COc1ncnc(NS(=O)(=O)c2ccc(N)cc2)c1OC` [SULFADOXINE] gave an AC50 (Acetylcholinesterase) of over 30 µM, an AC50 (Adenosine receptor A3) of over 30 µM and an AC50 [1] of over 30 µM. The AC50 [2] was over 30 µM, the AC50 (Histamine H3 receptor) was over 30 µM and the AC50 [3] was over 30 µM. It also gave an AC50 [4] of over 30 µM, an AC50 (Mu-type opioid receptor) of over 30 µM and an AC50 [5] of over 30 µM. For the same molecule, the AC50 [6] was over 30 µM and the AC50 (Thromboxane A2 receptor) was over 30 µM.

`CCOc1ccc(Cc2nccc3cc(OCC)c(OCC)cc23)cc1OCC` [ETHAVERINE] showed an AC50 (Acetylcholinesterase) of over 30 µM, an AC50 (Adenosine receptor A3) of 3.11 µM and an AC50 [1] of over 30 µM. The AC50 [2] was 9.55 µM, the AC50 (Histamine H3 receptor) was over 30 µM and the AC50 [3] was 13 µM. It also gave an AC50 [4] of over 30 µM, an AC50 (Mu-type opioid receptor) of over 30 µM and an AC50 [5] of 3.69 µM. The AC50 [6] was 0.466 µM and the AC50 (Thromboxane A2 receptor) was 14.1 µM.

Molecule `OCc1ccccc1` [BENZYL ALCOHOL] has an AC50 (Acetylcholinesterase) of over 30 µM, an AC50 (Adenosine receptor A3) of over 30 µM and an AC50 [1] of over 30 µM. For the same molecule, the AC50 [2] was over 30 µM, the AC50 (Histamine H3 receptor) was over 30 µM and the AC50 [3] was over 30 µM. The AC50 [4] was over 30 µM, the AC50 (Mu-type opioid receptor) was over 30 µM and the AC50 [5] was over 30 µM. The AC50 [6] was over 30 µM and the AC50 (Thromboxane A2 receptor) was over 30 µM.

`CN1CCc2c(c3ccccc3n2Cc2ccccc2)C1` [MEBHYDROLIN] gave an AC50 (Acetylcholinesterase) of over 30 µM, an AC50 (Adenosine receptor A3) of over 30 µM and an AC50 [1] of over 30 µM. It also gave an AC50 [2] of 1.07 µM, an AC50 (Histamine H3 receptor) of over 30 µM and an AC50 [3] of 1 µM. It also gave an AC50 [4] of over 30 µM, an AC50 (Mu-type opioid receptor) of 18.7 µM and an AC50 [5] of over 30 µM. The AC50 [6] was over 30 µM and the AC50 (Thromboxane A2 receptor) was over 30 µM.

`C[C@@H]1O[C@@H](O[C@H]2C[C@@H](O)[C@]3(CO)[C@H]4[C@H](O)C[C@]5(C)[C@@H](C6=CC(=O)OC6)CC[C@]5(O)[C@@H]4CC[C@]3(O)C2)[C@H](O)[C@H](O)[C@H]1O` [OUABAIN] was tested, and the AC50 (Acetylcholinesterase) was over 30 µM, the AC50 (Adenosine receptor A3) was over 30 µM and the AC50 [1] was over 30 µM. It also gave an AC50 [2] of over 30 µM, an AC50 (Histamine H3 receptor) of over 30 µM and an AC50 [3] of over 30 µM. The AC50 [4] was over 30 µM, the AC50 (Mu-type opioid receptor) was over 30 µM and the AC50 [5] was over 30 µM. It also gave an AC50 [6] of over 30 µM and an AC50 (Thromboxane A2 receptor) of over 30 µM.

`Nc1ccc(C(=O)NCC(=O)O)cc1` [AMINOHIPPURIC ACID] was tested, and the AC50 (Acetylcholinesterase) was over 30 µM, the AC50 (Adenosine receptor A3) was over 30 µM and the AC50 [1] was over 30 µM. It also gave an AC50 [2] of over 30 µM, an AC50 (Histamine H3 receptor) of over 30 µM and an AC50 [3] of over 30 µM. For the same molecule, the AC50 [4] was over 30 µM, the AC50 (Mu-type opioid receptor) was over 30 µM and the AC50 [5] was over 30 µM. It also gave an AC50 [6] of over 30 µM and an AC50 (Thromboxane A2 receptor) of over 30 µM.

In the case of `CC(C)=CCC/C(C)=C/CC/C(C)=C/CC/C(C)=C/CC1=C(C)C(=O)c2ccccc2C1=O` [MENATETRENONE], the AC50 (Acetylcholinesterase) is reported as over 30 µM, the AC50 (Adenosine receptor A3) is reported as 4.72 µM and the AC50 [1] is reported as over 30 µM. The AC50 [2] was over 30 µM, the AC50 (Histamine H3 receptor) was over 30 µM and the AC50 [3] was over 30 µM. It also gave an AC50 [4] of over 30 µM, an AC50 (Mu-type opioid receptor) of over 30 µM and an AC50 [5] of 5.09 µM. It also gave an AC50 [6] of 8.53 µM and an AC50 (Thromboxane A2 receptor) of over 30 µM.

For `COC(=O)N[C@H](C(=O)N1CC2(CC2)C[C@H]1c1ncc(-c2ccc3c(c2)C(F)(F)c2cc(-c4ccc5nc([C@@H]6[C@H]7CC[C@H](C7)N6C(=O)[C@@H](NC(=O)OC)C(C)C)[nH]c5c4)ccc2-3)[nH]1)C(C)C`, the AC50 (Acetylcholinesterase) was over 30 µM, the AC50 (Adenosine receptor A3) was over 10 µM and the AC50 [1] was over 30 µM. The AC50 [2] was over 30 µM, the AC50 (Histamine H3 receptor) was over 30 µM and the AC50 [3] was over 30 µM. For the same molecule, the AC50 [4] was over 30 µM, the AC50 (Mu-type opioid receptor) was over 30 µM and the AC50 [5] was over 30 µM. The AC50 [6] was over 30 µM and the AC50 (Thromboxane A2 receptor) was over 30 µM.

Source: ChEMBL document CHEMBL5291721, “A preclinical secondary pharmacology resource illuminates target-adverse drug reaction associations of marketed drugs” (Nat Commun, 2023)
